Data reported in patent publication US20130274235A1, “TREATMENT OF MOTOR NEURON DISEASE” (THE GENERAL HOSPITAL CORPORATION, priority 2010, published 2013).
Several values for one entry are separate records, joined by “and”; a condition that tells them apart may be missing. Equal entries are not always repeated. Structures can show the parent of a compound that is named as a salt. Where a SMILES comes first, the peptide text is derived from it.

Experiments:
IGF-II protein = IGF-II protein expression in primary spinal cord cultures, quantitated by ELISA; assay type: cell-based, mice
Source text: Further results of the library screening identified the following therapeutic agents as having a significant inducing effect on IGF-II expression in primary spinal cord cultures and are useful for treating motor neuron disease. Protein expression was quantitated by ELISA.

IGF-II mRNA = experiment: IGF-II expression assay, qPCR detection, in primary spinal cord cultures; assay type: cell-based, mice; conditions: for induction of IGF-II expression (fold induction) / IGF-II inducing activity (in words): NSAID series, FIGS. 3 and 4; for induction of IGF-II expression (in words): antihypertensive agents, FIGS. 5 and 6
Experimental: Quantitative PCR utilizing SYBR green I (Molecular Probes, Eugene, Oreg.) or specific Taqman probes was used to confirm differential gene expression. RNA extracted from 100-200 LCMed motor neurons were reverse transcribed using Superscript III (Invitrogen). 2 μl of diluted cDNA was amplified (DNA Engine Opticon real-time PCR machine, Bio-Rad), in […] reactions containing 900 nM primer and 250 nM probe in Taqman Universal Master Mix (Applied Biosystems). Reactions were run in duplicate and each gene analyzed in at least three different animals. Reaction parameters were as follows: 50° C. for 2 min, 95° C. for 10 min, and 40 cycles of 95° C. for 15 s and 60° C. for 1 min. Controls lacking template and/or Superscript were included. The absolute copy number for each gene was quantified using a standard curve from human GAPDH plasmid and amplified products were normalized against rat GAPDH expression. Primers and probes (Integrated DNA technologies) were as follows: rat GAPDH: Forward primer: […]
Two libraries of FDA-approved drugs (NINDS and Harvard LDDN) were screened for their ability to up-regulate IGF-II expression. Candidate compounds were screened in an IGF-II expression assay using a qPCR detection methodology in primary spinal cord cultures or using a luciferase reporter assay. In the initial screening, therapeutic candidates were identified as those that increased IGF-II expression by at least 2-fold. […]

O=C(O)Cc1ccccc1Nc1c(Cl)cccc1Cl [Diclofenac]
Fold Increase in IGF-II Protein Expression (IGF-II protein): 1.1 fold
IGF-II Protein Expression (pg/ml in media) (IGF-II protein): (112 ± 29) pg/ml
Fold Increase in IGF-II mRNA Expression (IGF-II mRNA): 4.0 ± 1.1 fold
induction of IGF-II expression (fold induction) (IGF-II mRNA): 3.4±1.3 fold

N[C@@H](Cc1ccc(O)c(O)c1)C(=O)O [Levodopa]
Fold Increase in IGF-II mRNA Expression (IGF-II mRNA): 3.5 fold

CNCCC(Oc1ccc(C(F)(F)F)cc1)c1ccccc1 (stereo not shown) [Fluoxetine]
Fold Increase in IGF-II mRNA Expression (IGF-II mRNA): 4.3 ± 2.3 fold

CS(=O)(=O)c1ccc([C@@H](O)[C@@H](CO)NC(=O)C(Cl)Cl)cc1 [Thiamphenicol]
Fold Increase in IGF-II mRNA Expression (IGF-II mRNA): 3.5 fold

Cc1onc(-c2ccccc2)c1-c1ccc(S(N)(=O)=O)cc1 [valdecoxib]
IGF-II inducing activity (in words) (IGF-II mRNA): strong IGF-II inducing activity

CCOC(=O)[C@@](C)(N)Cc1ccc(O)c(O)c1 [Methyldopate HCl]
Fold Increase in IGF-II mRNA Expression (IGF-II mRNA): 4.3 fold
induction of IGF-II expression (in words) (IGF-II mRNA): most active

CCCc1nc(C(C)(C)O)c(C(=O)OCc2oc(=O)oc2C)n1Cc1ccc(-c2ccccc2-c2nnn[nH]2)cc1 [Olmesartan medoxomil]
Fold Increase in IGF-II mRNA Expression (IGF-II mRNA): 5.2 fold
induction of IGF-II expression (in words) (IGF-II mRNA): most active

COC(=O)[C@H](Cc1ccccc1)NC(=O)[C@@H](N)CC(=O)O [Aspartame] (H-Asp-Phe-OMe)
Fold Increase in IGF-II Protein Expression (IGF-II protein): 1.2 fold
IGF-II Protein Expression (pg/ml in media) (IGF-II protein): (175 ± 1.7) pg/ml
Fold Increase in IGF-II mRNA Expression (IGF-II mRNA): 5.5 ± 0.7 fold

CNCC[C@@H](Oc1ccccc1C)c1ccccc1 [Atomoxetine HCl]
Fold Increase in IGF-II mRNA Expression (IGF-II mRNA): 4.8 fold

NC(=O)C[S+]([O-])C(c1ccccc1)c1ccccc1 (stereo not shown) [Modafinil]
Fold Increase in IGF-II Protein Expression (IGF-II protein): 1.4 fold
IGF-II Protein Expression (pg/ml in media) (IGF-II protein): (213 ± 22) pg/ml
Fold Increase in IGF-II mRNA Expression (IGF-II mRNA): 4.4 ± 4.0 fold

CC(C)NCC(O)COc1ccc(CC(N)=O)cc1 (stereo not shown) [atenolol]
induction of IGF-II expression (in words) (IGF-II mRNA): most active

Cc1ccc(-c2nc3ccc(C)cn3c2CC(=O)N(C)C)cc1 [Zolpidem]
Fold Increase in IGF-II mRNA Expression (IGF-II mRNA): 6.1 fold

CCC(=O)NCC[C@@H]1CCc2ccc3c(c21)CCO3 [Ramelteon]
Fold Increase in IGF-II Protein Expression (IGF-II protein): 1.5 fold
IGF-II Protein Expression (pg/ml in media) (IGF-II protein): (201 ± 10) pg/ml
Fold Increase in IGF-II mRNA Expression (IGF-II mRNA): 3.4 ± 1.3 fold

CC(COc1ccccc1)N(CCCl)Cc1ccccc1 (stereo not shown) [phenoxybenzamine HCl]
induction of IGF-II expression (in words) (IGF-II mRNA): most active

NC(=O)c1cccnc1 [Niacinamide]
Fold Increase in IGF-II Protein Expression (IGF-II protein): 1.1 fold
IGF-II Protein Expression (pg/ml in media) (IGF-II protein): (151 ± 45) pg/ml
Fold Increase in IGF-II mRNA Expression (IGF-II mRNA): 5.0 ± 3.6 fold

COc1ccc(-c2cc(C(F)F)nn2-c2ccc(S(N)(=O)=O)cc2)cc1F [deracoxib]
IGF-II inducing activity (in words) (IGF-II mRNA): strong IGF-II inducing activity

CN(C)CCCC1(c2ccc(F)cc2)OCc2cc(C#N)ccc21 (stereo not shown) [Citalopram]
Fold Increase in IGF-II mRNA Expression (IGF-II mRNA): 3.4 fold

CC(C)(C)NC[C@H](O)COc1nsnc1N1CCOCC1 [timolol maleate]
induction of IGF-II expression (in words) (IGF-II mRNA): most active

CCCN(CCC)CCc1cccc2c1CC(=O)N2 [Ropinirole]
Fold Increase in IGF-II mRNA Expression (IGF-II mRNA): 4.5 ± 3.0 fold

COCCCC/C(=N\OCCN)c1ccc(C(F)(F)F)cc1 [Fluvoxamine maleate]
Fold Increase in IGF-II mRNA Expression (IGF-II mRNA): 4.8 fold

CC(C(=O)O)c1ccc(-c2ccccc2)c(F)c1 (stereo not shown) [Flurbiprofen]
Fold Increase in IGF-II Protein Expression (IGF-II protein): 1.2 fold
IGF-II Protein Expression (pg/ml in media) (IGF-II protein): (121 ± 27) pg/ml
Fold Increase in IGF-II mRNA Expression (IGF-II mRNA): 2.5 fold and 2.5 ± 0.5 fold
induction of IGF-II expression (fold induction) (IGF-II mRNA): 2.5±0.5 fold

CN1CCC[C@@H]1Cc1c[nH]c2ccc(CCS(=O)(=O)c3ccccc3)cc12 [Eletriptan HBr]
Fold Increase in IGF-II mRNA Expression (IGF-II mRNA): 4.3 fold

Cc1cc2c(s1)Nc1ccccc1N=C2N1CCN(C)CC1 [Olanzapine]
Fold Increase in IGF-II mRNA Expression (IGF-II mRNA): 4.0 fold

COc1ccc([C@@H]2Sc3ccccc3N(CCN(C)C)C(=O)[C@@H]2OC(C)=O)cc1 [Diltiazem HCl]
Fold Increase in IGF-II mRNA Expression (IGF-II mRNA): 4.3 fold
induction of IGF-II expression (in words) (IGF-II mRNA): most active

CC(=O)OCC(=O)[C@@]1(O)[C@H](C)C[C@H]2[C@@H]3CCC4=CC(=O)C=C[C@]4(C)[C@@]3(F)[C@@H](O)C[C@@]21C [Dexamethasone acetate]
Fold Increase in IGF-II mRNA Expression (IGF-II mRNA): 3.8 fold

O=C(O)COCCN1CCN(C(c2ccccc2)c2ccc(Cl)cc2)CC1 (stereo not shown) [Cetirizine HCl]
Fold Increase in IGF-II mRNA Expression (IGF-II mRNA): 5.8 fold
